Measured values as given in article PMC9578396, “Intrinsic Antibacterial Activity of Xeruborbactam In Vitro: Assessing Spectrum and Mode of Action” (Antimicrobial Agents and Chemotherapy, 2022).
Values after ≈ are worked out from the molar mass of the structure shown.

How the values were obtained:
[1] = target: T1, PBP1a (Pseudomonas aeruginosa, UniProt Q07806); test: Gel-based Bocillin FL competition PBP binding assay; conditions: P. aeruginosa PAM3034 membranes; Bocillin FL step 0°C for xeruborbactam, 30°C for beta-lactams; read-out: Relative binding IC50, PBP1a
T1 construct: endogenous in cells
Protocol: (§1) Ten milliliters of overnight bacterial culture was inoculated in 1 L of LB medium and grown to an OD600 of 0.7 to 0.9. The cell pellet was washed once with 50 mL of solution containing 100 mM Na-phosphate at pH 7.0 and 100 mM NaCl and resuspended in 10 mL of the same buffer with one tablet of EDTA-free mini-protease inhibitor and 10 mg of lysozyme. Cell suspensions were incubated for 45 min at 37°C, and then 200 μL of DNase I was added along with MgSO4 (to a final concentration of 10 mM), followed by three cycles of freeze-thawing (10 min and 20 min, respectively). Four cycles of sonication at maximum power were performed next, each cycle lasting for 30 s with 1 min on ice between cycles. The cell suspension was centrifuged at 12,000 × g for 10 min at 4°C. The supernatant was collected and centrifuged at 100,000 × g for 45 min at 4°C. The pellet was washed three times with 10 mL of 100 mM Na-phosphate, pH 7.0, by resuspension and subsequent centrifugation at 100,000 × g for 10 min at 4°C. The pellet was finally resuspended in 1.5 mL of 100 mM Na-phosphate, pH 7.0, and passed several times through a Dounce homogenizer (tight pestle). Membrane preparations were aliquoted and kept at −80°C.
(§2) Five microliters of total bacterial membrane preparation was mixed with 5 μL of a test compound at a desired concentration in 100 mM Na-phosphate buffer, pH 7.0. Incubation of bacterial membrane preparations with control beta-lactams was performed for 10 min at 30°C; xeruborbactam was incubated with membrane preparations for 1 h at 30°C. Five microliters of 150 μM Bocillin FL fluorescent probe (Thermo Fisher Scientific) was added, and the reaction mixture was incubated for an additional 10 min at 30°C in the case of beta-lactams or for 20 min on ice (0°C) in the case of xeruborbactam. […] At the end of the incubation step, 15 μL of 2× SDS sample loading buffer was added, and the reaction mixture was incubated for 5 min at 95°C. Twenty-five microliters of the reaction mixture was then loaded on an 8% SDS Tris-glycine gel (Thermo Fisher Scientific). At the end of the run, the gel was briefly rinsed with water and fixed in 10% acetic acid, 40% methanol for 20 min. After an additional wash in water for 30 min, the gel was scanned on a Typhoon Trio+ Imager using a blue laser filter (excitation, 488 nm, and emission, 520 nm). Densitometry of the gel images was performed using ImageQuant software (Molecular Dynamics). IC50 values were calculated with Prism software (GraphPad).

[2] = target: PBP3 (Acinetobacter baumannii, UniProt A0ABX6CK25); parameters: method as in earlier work; conditions: read-out: IC50, PBP3; value in parentheses; A. baumannii ATCC 19606; cited from earlier work
[3] = system: strain KPM1026a of K. pneumoniae; test: Minimal bactericidal concentration (MBC), K. pneumoniae; format: cell-based; conditions: Klebsiella pneumoniae
[4] = target: T2, PBP2 (Pseudomonas aeruginosa, UniProt Q9X6V3); test: Gel-based Bocillin FL competition PBP binding assay; conditions: P. aeruginosa PAM3034 membranes; Bocillin FL step 0°C for xeruborbactam, 30°C for beta-lactams; read-out: Relative binding IC50, PBP2
T2 construct: endogenous in cells
Protocol: as §1, §2

[5] = target: T3, PBP3 (Pseudomonas aeruginosa, UniProt G3XD46); test: as above; conditions: P. aeruginosa PAM3034 membranes; Bocillin FL step 0°C for xeruborbactam, 30°C for beta-lactams; read-out: Relative binding IC50, PBP3
T3 construct: endogenous in cells
Protocol: as §1, §2

[6] = system: Other Enterobacterales; test: Broth microdilution MIC (CLSI), other Enterobacterales; format: cell-based; conditions: 18 isolates
Excerpt: Bacterial isolates were subjected to broth microdilution susceptibility testing, performed according to Clinical and Laboratory Standards Institute (CLSI) methods ([46]), using panels prepared in-house. Meropenem was purchased from Sandoz, and all other antibiotics were from Sigma-Aldrich. Xeruborbactam was synthesized at Qpex Biopharma, San Diego, CA. Avibactam was purchased from eNovation Chemicals LLC, Bridgewater, NJ, USA; zidebactam was from MedKoo Biosciences, Inc., Morrisville, NC, and nacubactam was from Advanced ChemBlocks, Hayward, CA. Durlobactam was synthesized at Acme Bioscience, Palo Alto, CA, USA.

[7] = system: major PBPs in total membrane preparations; test: Bocillin FL competition PBP binding assay, probe incubation at 30°C; parameters: species or system E. coli, K. pneumoniae, A. baumannii, and P. aeruginosa; conditions: concentrations up to 300 μM; fluorescent probe incubation at 30°C
Protocol: as §1, with “Membrane preparations were aliquoted and kept at −80°C.” left out
(§3) Five microliters of total bacterial membrane preparation was mixed with 5 μL of a test compound at a desired concentration in 100 mM Na-phosphate buffer, pH 7.0. […] IC50 values were calculated with Prism software (GraphPad).

[8] = target: T4, PBP3 (Escherichia coli, UniProt P0AD68); test: Gel-based Bocillin FL competition PBP binding assay
T4 construct: endogenous in cells; host or cells: Escherichia coli ECM5497 (MG1655), total membrane preparation
Protocol: as §1, with “Membrane preparations were aliquoted and kept at −80°C.” left out
as §3

[9] = system: strain PAM1154 of P. aeruginosa; test: Minimal bactericidal concentration (MBC), P. aeruginosa; format: cell-based; conditions: Pseudomonas aeruginosa
[10] = system: K. pneumoniae strain KPM1026a; test: Fluorescence microscopy, cellular morphology; format: cell-based, Klebsiella pneumoniae; conditions: treated at 1× and 2× MIC, 1 to 2 h, 30°C
Protocol: Single colonies of K. pneumoniae strain KPM1026a, A. baumannii strain ATCC 17978, and P. aeruginosa strain PAM1154 were picked from LB agar plates, inoculated in cation-adjusted Mueller-Hinton broth (CA-MHB), and incubated overnight at 30°C with rolling. Overnight cultures were diluted into fresh CA-MHB and incubated at 30°C, with rolling, until they reached an OD600 of ≈0.12 to 0.15 (equivalent to ~2 × 10^8 CFU/mL). Samples were then treated with compounds and incubated at 30°C, with rolling. After 1 or 2 h of treatment, cells were collected and stained with a dye mix containing FM4-64 (1 μg/mL), DAPI (4′,6-diamidino-2-phenylindole) (2 μg/mL), and SYTOX green (0.5 μM) (Molecular Probes, Invitrogen, or Thermo Fisher Scientific). Cells were transferred onto an agarose pad containing 1.2% agarose and 20% LB medium for microscopy. Microscopy was performed as previously described ([34]).

T4 sequence (P0AD68 whole entry): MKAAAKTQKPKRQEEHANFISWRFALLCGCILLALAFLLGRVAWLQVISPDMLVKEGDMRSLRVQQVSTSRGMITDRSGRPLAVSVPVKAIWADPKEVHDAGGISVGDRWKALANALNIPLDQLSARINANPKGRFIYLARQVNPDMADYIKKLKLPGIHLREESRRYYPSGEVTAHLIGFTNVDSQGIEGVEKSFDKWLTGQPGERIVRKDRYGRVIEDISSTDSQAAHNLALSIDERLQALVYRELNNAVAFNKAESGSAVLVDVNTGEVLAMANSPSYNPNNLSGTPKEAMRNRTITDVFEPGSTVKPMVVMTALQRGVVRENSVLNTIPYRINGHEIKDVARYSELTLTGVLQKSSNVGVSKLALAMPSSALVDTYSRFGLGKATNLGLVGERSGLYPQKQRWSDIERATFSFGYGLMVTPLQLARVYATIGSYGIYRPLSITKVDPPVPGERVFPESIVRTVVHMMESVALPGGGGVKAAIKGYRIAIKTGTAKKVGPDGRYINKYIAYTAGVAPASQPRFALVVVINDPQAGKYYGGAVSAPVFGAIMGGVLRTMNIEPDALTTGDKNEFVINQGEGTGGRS
T2 sequence (Q9X6V3 1-646): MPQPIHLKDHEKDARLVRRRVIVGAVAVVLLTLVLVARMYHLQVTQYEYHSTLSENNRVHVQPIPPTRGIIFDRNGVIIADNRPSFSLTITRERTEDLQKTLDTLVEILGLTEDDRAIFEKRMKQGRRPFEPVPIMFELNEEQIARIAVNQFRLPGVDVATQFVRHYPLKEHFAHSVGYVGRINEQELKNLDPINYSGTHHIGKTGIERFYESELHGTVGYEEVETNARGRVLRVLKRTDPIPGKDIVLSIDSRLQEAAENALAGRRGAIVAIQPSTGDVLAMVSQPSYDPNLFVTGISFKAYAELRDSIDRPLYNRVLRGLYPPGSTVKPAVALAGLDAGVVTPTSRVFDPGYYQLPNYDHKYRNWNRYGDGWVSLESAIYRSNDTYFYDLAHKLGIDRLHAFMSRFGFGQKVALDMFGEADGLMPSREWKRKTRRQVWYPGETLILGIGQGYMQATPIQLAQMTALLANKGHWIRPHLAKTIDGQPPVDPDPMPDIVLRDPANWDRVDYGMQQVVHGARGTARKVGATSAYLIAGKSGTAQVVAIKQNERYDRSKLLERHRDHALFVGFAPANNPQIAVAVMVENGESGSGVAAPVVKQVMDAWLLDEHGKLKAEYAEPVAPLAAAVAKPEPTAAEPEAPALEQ
T3 sequence (G3XD46 whole entry): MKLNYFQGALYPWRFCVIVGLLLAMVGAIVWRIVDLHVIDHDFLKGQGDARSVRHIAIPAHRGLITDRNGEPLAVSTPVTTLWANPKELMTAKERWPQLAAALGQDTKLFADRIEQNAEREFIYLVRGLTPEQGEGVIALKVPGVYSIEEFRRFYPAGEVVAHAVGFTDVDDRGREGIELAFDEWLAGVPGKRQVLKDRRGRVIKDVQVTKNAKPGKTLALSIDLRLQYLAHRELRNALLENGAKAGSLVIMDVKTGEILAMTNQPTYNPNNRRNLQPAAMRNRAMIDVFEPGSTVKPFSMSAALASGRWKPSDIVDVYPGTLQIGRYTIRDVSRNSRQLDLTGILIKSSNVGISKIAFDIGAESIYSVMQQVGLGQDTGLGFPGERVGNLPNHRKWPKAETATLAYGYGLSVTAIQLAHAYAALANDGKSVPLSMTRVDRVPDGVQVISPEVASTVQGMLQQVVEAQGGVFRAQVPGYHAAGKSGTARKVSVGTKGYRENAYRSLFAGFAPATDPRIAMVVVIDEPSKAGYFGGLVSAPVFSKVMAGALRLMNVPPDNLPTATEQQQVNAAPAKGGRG
Chain of PBP3 (Acinetobacter baumannii, UniProt A0ABX6CK25) (A0ABX6CK25 entry or part of it): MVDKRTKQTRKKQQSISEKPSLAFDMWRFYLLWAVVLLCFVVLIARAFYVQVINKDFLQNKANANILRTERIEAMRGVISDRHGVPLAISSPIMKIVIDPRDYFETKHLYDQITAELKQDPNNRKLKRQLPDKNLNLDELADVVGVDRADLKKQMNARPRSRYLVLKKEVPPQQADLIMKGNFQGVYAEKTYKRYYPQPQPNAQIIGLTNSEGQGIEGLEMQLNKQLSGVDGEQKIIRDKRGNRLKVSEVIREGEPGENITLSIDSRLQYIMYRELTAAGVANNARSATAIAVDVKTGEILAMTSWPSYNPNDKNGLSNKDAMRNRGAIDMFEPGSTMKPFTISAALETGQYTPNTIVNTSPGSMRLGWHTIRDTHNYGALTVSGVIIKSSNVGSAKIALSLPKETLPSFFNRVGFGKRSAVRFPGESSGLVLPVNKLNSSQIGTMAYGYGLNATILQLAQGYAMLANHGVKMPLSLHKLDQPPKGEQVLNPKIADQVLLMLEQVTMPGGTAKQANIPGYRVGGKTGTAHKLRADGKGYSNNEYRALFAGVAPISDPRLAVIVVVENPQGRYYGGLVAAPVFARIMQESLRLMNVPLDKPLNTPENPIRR
T1 sequence (Q07806 whole entry): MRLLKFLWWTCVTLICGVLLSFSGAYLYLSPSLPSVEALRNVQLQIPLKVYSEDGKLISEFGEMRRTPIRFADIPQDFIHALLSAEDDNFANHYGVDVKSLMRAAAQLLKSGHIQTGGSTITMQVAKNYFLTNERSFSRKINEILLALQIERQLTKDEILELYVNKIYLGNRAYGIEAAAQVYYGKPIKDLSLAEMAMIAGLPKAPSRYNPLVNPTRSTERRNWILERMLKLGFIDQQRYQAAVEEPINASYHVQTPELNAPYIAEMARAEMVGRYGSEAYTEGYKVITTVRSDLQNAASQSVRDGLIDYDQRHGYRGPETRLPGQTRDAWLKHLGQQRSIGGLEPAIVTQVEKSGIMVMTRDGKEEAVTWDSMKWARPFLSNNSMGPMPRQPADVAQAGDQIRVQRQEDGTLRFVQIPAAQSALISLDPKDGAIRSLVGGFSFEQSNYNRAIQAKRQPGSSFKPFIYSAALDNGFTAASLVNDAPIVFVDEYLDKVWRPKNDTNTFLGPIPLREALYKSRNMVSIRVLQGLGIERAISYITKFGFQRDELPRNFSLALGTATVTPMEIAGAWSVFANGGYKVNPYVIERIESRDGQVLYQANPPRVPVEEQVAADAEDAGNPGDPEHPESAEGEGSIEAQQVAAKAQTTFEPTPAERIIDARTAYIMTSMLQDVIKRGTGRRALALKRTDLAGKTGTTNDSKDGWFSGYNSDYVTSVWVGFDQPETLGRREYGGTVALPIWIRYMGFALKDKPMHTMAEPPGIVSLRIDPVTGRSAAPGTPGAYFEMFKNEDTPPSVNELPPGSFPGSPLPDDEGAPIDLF

C[C@@H](O)[C@H]1C(=O)N2C(C(=O)O)=C(S[C@@H]3CN[C@H](C(=O)N(C)C)C3)[C@H](C)[C@H]12 [Meropenem]
IC50 [1]: 0.17 µM | IC50 [2]: 0.33 µM

O=C(O)c1c(F)ccc2c1OB(O)[C@@H]1C[C@H]21 [Xeruborbactam]
MBC [3]: 16 µg/mL (≈ 72.1 µM) | IC50 [4]: 370 ± 120 µM | IC50 [5]: 510 ± 120 µM | MIC50 [6]: 16 µg/mL (≈ 72.1 µM) | MIC90 [6]: 32 µg/mL (≈ 144 µM) | MIC range [6]: 8 to 64 µg/mL | interaction with PBPs [7]: No detectable interactions | IC50 [8]: 73 ± 10 µM | MBC [9]: 32 µg/mL (≈ 144 µM) | cellular morphology [10]: increased cell length relative to that of the untreated controls and bulges that developed at midcell
